Experimental data: the supplement of paper PMC10307832

How the values were obtained:
Assay in all cases: relative viability (nuclei count vs DMSO), 5 days (fraction); higher = more cells survive
Kobe2602 + Phenformin = compound: C1=CC(=CC=C1NC(=S)NNC2=C(C=C(C=C2[N+](=O)[O-])C(F)(F)F)[N+](=O)[O-])F [Kobe2602] + N=C(N)NC(=N)NCCc1ccccc1 [Phenformin] (partner 250 µM)
Summary of the method: (§1)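 Nuclei were stained with Hoechst during a one-step fixation (final 0.05% Triton X-100, 1% formaldehyde, 1 ug/ml Hoechst) carried out 5 days after dosing, then counted on 4× images. The cells, lung cancer lines in 1536-well plates, had been dosed by pin tool the day after seeding with one drug alone or a fixed anchor-drug dose plus five library-drug doses (not always all listed) in √10 steps. Relative viability is the nuclei count in treated wells divided by that in vehicle wells, and each value is the median of duplicate plates.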

Kobe2602 + Palbociclib = compound: C1=CC(=CC=C1NC(=S)NNC2=C(C=C(C=C2[N+](=O)[O-])C(F)(F)F)[N+](=O)[O-])F [Kobe2602] + CC(=O)c1c(C)c2cnc(Nc3ccc(N4CCNCC4)cn3)nc2n(C2CCCC2)c1=O [Palbociclib] (partner 0.5 µM)
Summary of the method: as §1

Zosuquidar + Bortezomib = compound: O[C@@H](COc1cccc2ncccc12)CN1CCN([C@@H]2c3ccccc3[C@@H]3[C@H](c4ccccc42)C3(F)F)CC1 [Zosuquidar] + CC(C)C[C@H](NC(=O)[C@H](Cc1ccccc1)NC(=O)c1cnccn1)B(O)O [Bortezomib] (partner 0.002 µM)
Summary of the method: as §1

[1] = compound: COc1cc2nccc(Oc3ccc(NC(=O)C4(C(=O)Nc5ccc(F)cc5)CC4)cc3)c2cc1OC [Cabozantinib] + C[C@@H](Oc1cc(-c2cnn(C3CCNCC3)c2)cnc1N)c1c(Cl)ccc(F)c1Cl [Crizotinib] (partner 1 µM)
Summary of the method: as §1

Cell Line | relative viability (Kobe2602 + Phenformin; first compound 0.2 µM) | relative viability (Kobe2602 + Phenformin; first compound 0.6325 µM) | relative viability (Kobe2602 + Phenformin; first compound 6.325 µM) | relative viability (Kobe2602 + Phenformin; first compound 20 µM) | relative viability (Kobe2602 + Palbociclib; first compound 0.2 µM) | relative viability (Kobe2602 + Palbociclib; first compound 0.6325 µM) | relative viability (Kobe2602 + Palbociclib; first compound 2 µM) | relative viability (Kobe2602 + Palbociclib; first compound 6.325 µM) | relative viability (Kobe2602 + Palbociclib; first compound 20 µM) | relative viability (Zosuquidar + Bortezomib; first compound 0.01 µM) | relative viability (Zosuquidar + Bortezomib; first compound 0.03162 µM) | relative viability (Zosuquidar + Bortezomib; first compound 0.1 µM) | relative viability (Zosuquidar + Bortezomib; first compound 0.3162 µM) | relative viability (Zosuquidar + Bortezomib; first compound 1 µM) | relative viability ([1]; first compound 0.02 µM) | relative viability ([1]; first compound 0.06325 µM) | relative viability ([1]; first compound 0.2 µM) | relative viability ([1]; first compound 0.6325 µM) | relative viability ([1]; first compound 2 µM) | relative viability (Kobe2602 + Phenformin; first compound 2 µM)
ABC-1 | 0.215 | 0.233 | 0.211 | 0.227 | 0.579 | 0.762 | 0.559 | 0.853 | 0.739 | 0.361 | 0.328 | 0.322 | 0.379 | 0.269 | 1.23 | 1.08 | 1.19 | 0.952 | 1.01 | –
NCI-H650 | 0.454 | 0.538 | 0.457 | 0.452 | 0.31 | 0.357 | 0.344 | 0.402 | 0.372 | 0.858 | 0.863 | – | 1.01 | 0.919 | 0.857 | 0.692 | 0.836 | 0.792 | 0.757 | 0.471
NCI-H1734 | 0.413 | 0.408 | 0.347 | 0.388 | 0.364 | 0.412 | 0.325 | 0.607 | 0.334 | 0.771 | 0.959 | 0.918 | 0.997 | 1.06 | 0.809 | 0.761 | 0.687 | 0.73 | 0.635 | 0.422
LOU-NH91 | 0.669 | 0.775 | 0.614 | 0.658 | 0.475 | 0.5 | 0.537 | 0.526 | 0.529 | 0.567 | 0.52 | 0.484 | 0.503 | 0.507 | 0.736 | 0.751 | 0.531 | 0.728 | 0.725 | 0.639
NCI-H460 | 0.516 | 0.513 | 0.514 | 0.499 | – | 0.22 | 0.184 | 0.145 | 0.176 | 1.01 | 1.09 | 1.14 | 1.07 | 1.1 | 1.01 | 0.895 | 0.902 | 0.926 | 0.929 | 0.614
SK-LU-1 | 0.618 | 0.682 | 0.526 | 0.597 | 0.396 | 0.402 | 0.338 | 0.428 | 0.459 | 1.17 | 1.14 | 0.962 | – | 1.41 | – | 0.941 | 0.772 | 0.872 | 0.857 | 0.584
EPLC-272H | 0.313 | 0.32 | 0.323 | 0.294 | 0.337 | 0.357 | 0.352 | 0.321 | 0.359 | 0.844 | 0.956 | 0.998 | 1.16 | 0.938 | 0.893 | 0.946 | 0.783 | 0.835 | 0.771 | 0.31
A-427 | 0.416 | 0.413 | 0.303 | 0.307 | 0.593 | 0.571 | 0.522 | 0.606 | 0.532 | 0.923 | 0.971 | 0.87 | 1.06 | 0.901 | 0.836 | 0.968 | 0.887 | 0.789 | 0.858 | 0.364
